Where a SMILES comes first, the peptide text is derived from it. Where no end group is shown, it is not given here. The star is where a group is joined. Myristoyl = CCCCCCCCCCCCCC(=O)*
Legend:
C57BL/6 mice [1] = test: Tail bleeding time; conditions: M3mP6 HLPN 10 μmol/kg; aspirin 4.3 mg/kg; clopidogrel 4 mg/kg; ticagrelor 3 mg/kg; cangrelor 30 μg/kg; MB2mP6
Method: M3mP6 was administered via retro-orbital injection 15 minutes prior to procedure.
Tail bleeding time was performed as previously described (21, 39). Eight- to 10-week-old C57BL/6 mice were anesthetized with isoflurane. After cutting 0.5-cm-long segment of the distal tip of the tail, their tails were immersed in 0.15 M NaCl immediately at 37° C. Tail bleeding time was defined as the time between cutting tail and stable cessation of bleeding (no rebleeding within 60s). […] If bleeding persisted at 15 minute time point, bleeding was stopped by application of pressure. Data were analyzed using Mann-Whitney test to compare medians between groups.
Tail bleeding time was performed as previously described (16, 29). Eight- to 10-week-old C57BL/6 mice weighing 20-25 g were anesthetized with isoflurane. After cutting a 0.5-cm-long segment off the distal tip of the tail, their tails were immersed in 0.15 M NaCl immediately at 37° C. Tail bleeding time was defined as the time between cutting the tail and stable cessation of bleeding (no re-bleeding within 60s). […] If bleeding persisted at 15 minutes, bleeding was stopped by application of pressure. Data were analyzed using the Mann-Whitney test to compare medians between groups.

C57/BL6 mice = test: Reverse passive Arthus (rpA) reaction; format: in vivo, mouse; conditions: 5 μmol/kg, vs scrambled peptide
Method: C57/BL6 mice were anesthetized by i.p. injection of a mixture of ketamine and xylazine (100 mg/kg and 16 mg/kg mouse weight), and the medial surface of the mouse back was shaved. Shaved mice received intradermal injections of rabbit anti-bovine serum albumin (BSA) antibody (6 μg/μL, MP Biomedicals, OH) in 25 μL of 0.9% NaCl, followed by i.v. injection of BSA (75 μg/g mouse weight) as well as the peptide inhibitors (5 μmol/kg mouse weight) in 100 μL sterile 0.9% NaCl. In addition, control sites received 25 μL of PBS in parallel. Four hours after injection, mice were euthanized and inflamed or control skin samples at each injection site were collected. The hemoglobin (Hb) contents in the skin samples were quantified by hemoglobin colorimetric assay kit (Cayman Chemical, Ann Arbor, MI).

C57BL/6 mice [2] = test: Cecal ligation and puncture (CLP) sepsis model; format: in vivo, mouse; conditions: bolus 2.5 μmol/kg then 1.25 μmol/kg/hour i.v.
Method: CLP sepsis was induced as described previously (32, 33). In brief, mice (14- to 16-week-old with equal number of each gender) were anesthetized by intraperitoneal administration of ketamine (100 mg/kg body weight) and xylazine (8 mg/kg). After a midline laparotomy, the cecum was ligated at about 1 cm from the end and then subjected to a double “through and through” perforation with an 18-gauge needle. Sham-operated mice underwent the same procedure except for ligation and puncture of the cecum. After the procedure, an analgesic (buprenorphine, 0.1 mg/kg, s.c.) was given immediately and every 12 h thereafter for 3 d. At these time points, fluid resuscitation (prewarmed 0.9% NaCl, 0.05 ml/g body weight) was given through subcutaneous injection to prevent fluid loss and help the recovery of body temperature. […] The survival of mice was observed every 6 h for 8 days and analyzed by the Log Rank test (using Prism GraphPad software (ver. 5.0), San Diego, CA, USA). […]
Twenty-four hours after CLP, mouse blood was collected and added to an EDTA-rinsed microcentrifuge tube or citrate buffer. […] The kidney function markers BUN, creatinine and cystatin C and mouse liver function marker ALT were detected using corresponding kits according to the manufacturers' instructions. […]

| Molecule | tail bleeding time vs normal control (C57BL/6 mice [1]) | inflammation-induced hemorrhage (C57/BL6 mice) | survival rate at 192 h (8 days), infusion immediately after CLP (C57BL/6 mice [2]) [%] |
| --- | --- | --- | --- |
| CCCCCCCCCCCCCC(=O)N[C@@H](Cc1ccccc1)C(=O)N[C@@H](CCC(=O)O)C(=O)N[C@@H](CCCCN)C(=O)N[C@@H](CCC(=O)O)C(=O)N[C@@H](CCCCN)C(=O)N[C@@H](CC(C)C)C(=O)O [MB2mP6, Myr-FEKEKL] (Myristoyl-FEKEKL-OH; C-terminus assumed) | neither affected | neither affected | – |
| Myr-EFKKLE (Myristoyl-EFKKLE) [control peptide, scrambled control for MB2mP6 in micellar nanoparticle formulation (CLP study)] | – | – | 26 |
